Experimental data taken from patent US10398689B2, “Benzopiperidine derivative, preparation method thereof and medical use thereof” (Jiangsu Hengrui Medicine Co., Ltd., priority 2015, dated 2019).

Experiments:
[1] = system: MCF7 cells; assay: Inhibition of the proliferation of MCF7 cells (Cell Titer-Glo); type: cell-based; details: Homo sapiens, MCF-7 cells, 72 hours, read-out: IC50 value of inhibition effect on the proliferation of MCF7 cells
Outline: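 MCF-7 cells seeded 24 h, then treated with compound (0.5% DMSO final) in 2% FBS medium for 72 h at 37 °C; viability read by CellTiter-Glo luminescence. IC50 from luminescence vs log concentration; maximum inhibition scaled to AZD9496 at 100 nM set as 100%.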

[2] = Pharmacokinetics assay in BALB/C nude mice after intragastrical administration; type: in vivo; details: female, mouse, po, 3 mg/kg, plasma; for Vd/F: read-out: Apparent Distribution Volume Vz/F; for AUC: read-out: Area Under Curve AUC; for CL/F: read-out: Clearance CL/F; for half-life: read-out: Half-Life t1/2 (converted); for MRT: read-out: Mean Residence Time MRT; for Cmax: read-out: Plasma Conc. Cmax
Description: BALB/C nude mice were used as test animals. The drug concentration in plasma at different time points was determined by LC/MS/MS after intragastrical administration of the compounds of Examples 1, 7, 8, 10, 11, 14, 16, 39 and 42 to BALB/C nude mice. The pharmacokinetic behavior of the compounds of the compounds of the present invention was studied and evaluated in BALB/C nude mice.
Eighty-one (81) female BALB/C nude mice, were equally divided into 9 groups, which were purchased from SINO-BRITSH SIPPR/BK LAB. ANIMAL LTD., CO, with Certificate No.: SOCK (Shanghai) 2008-0016.
The appropriate amount of each test compound was weighed, and successively added with 9% PEG400+0.5% tween 80+0.5% PVP+90% aqueous solution of 0.5% CMC.
After an overnight fasting, 81 female BALB/C nude mice were equally divided into 9 groups; and administered the test compounds intragastrically at an administration volume of 0.2 mL/10 g.
81 female Balb/C nude mice were administered the test compounds intragastrically after an overnight fasting. Blood (0.1 mL) was taken (3 animals at each time point) at 0.5, 1.0, 2.0, 4.0, 6.0, 8.0, 11.0, and 24.0 h after administration. The samples were stored in heparinized test tubes, and centrifuged for 10 minutes at 3,500 rpm to separate the blood plasma. The plasma samples were stored at −20° C.
The concentration of the prototype drug in the plasma and in the solution to be administered was determined by liquid chromatography tandem mass spectrometry (LC/MS MS).

| IC50 [1] [pM] | Vd/F [2] [L/kg] | AUC [2] [ng·h/mL] | CL/F [2] [mL/min/kg] | half-life [2] [h] | MRT [2] [h] | Cmax [2] [ng/mL] | SMILES |
| --- | --- | --- | --- | --- | --- | --- | --- |
| 860 | 1.23 | 12900 | 3.88 | 3.67 | 6.8 | 1280 | CCn1cc(-c2ccc3c(c2)CC(C)N(c2ccc(C(C)C)cc2)C3c2ccc(/C=C/C(=O)O)cc2)cn1 [Example 7, (E)-3-(4-((1R,3R/1S,3S)-6-(1-Ethyl-1H-pyrazol-4-yl)-2-(4-isopropylphenyl)-3-methyl-1,2,3,4-tetrahydroisoquinolin-1-yl)phenyl)acrylic acid] |
| 170 | 1.51 | 9380 | 5.33 | 3.27 | 5.26 | 1620 | CCn1cc(-c2ccc3c(c2)C[C@@H](C)N(c2ccc(C(C)C)cc2)[C@@H]3c2ccc(/C=C/C(=O)O)cc2)cn1 [Example 8, (E)-3-(4-((1R,3R)-6-(1-Ethyl-1H-pyrazol-4-yl)-2-(4-isopropylphenyl)-3-methyl-1,2,3,4-tetrahydroisoquinolin-1-yl)phenyl)acrylic acid] |
| 340 | 3.1 | 11200 | 4.46 | 8.04 | 9.21 | 1270 | CC(C)c1ccc(N2[C@H](c3ccc(/C=C/C(=O)O)cc3)c3ccc(-c4cnn(C)c4)cc3C[C@H]2C)cc1 [Example 42, (E)-3-(4-((1R,3R)-2-(4-Isopropylphenyl)-3-methyl-6-(1-methyl-1H-pyrazol-4-yl)-1,2,3,4-tetrahydroisoquinolin-1-yl)phenyl)acrylic acid] |

Second part, the molecule before the results:

| SMILES | IC50 [1] [pM] | Vd/F [2] [L/kg] | AUC [2] [ng·h/mL] | CL/F [2] [mL/min/kg] | half-life [2] [h] | MRT [2] [h] | Cmax [2] [ng/mL] |
| --- | --- | --- | --- | --- | --- | --- | --- |
| CCc1ccc(N2C(C)Cc3cc(-c4cnn(C)c4)ccc3C2c2ccc(/C=C/C(=O)O)cc2)cc1 [Example 1, (E)-3-(4-((1R,3R/1S,3S)-2-(4-Ethylphenyl)-3-methyl-6-(1-methyl-1H-pyrazol-4-yl)-1,2,3,4-tetrahydroisoquinolin-1-yl)phenyl)acrylic acid] | 370 | 0.865 | 14400 | 3.48 | 2.87 | 4.53 | 3440 |
| C[C@@H]1Cc2cc(-c3cnn(C)c3)ccc2[C@@H](c2ccc(/C=C/C(=O)O)cc2)N1c1ccc(C2CC2)cc1 [Example 11, (E)-3-(4-((1R,3R)-2-(4-Cyclopropylphenyl)-3-methyl-6-(1-methyl-1H-pyrazol-4-yl)-1,2,3,4-tetrahydroisoquinolin-1-yl)phenyl)acrylic acid] | 1470 | 1.48 | 16400 | 3.06 | 5.58 | 7.9 | 1890 |
| CCn1cc(-c2ccc3c(c2)C[C@@H](C)N(c2ccc(C4CC4)cc2)[C@@H]3c2ccc(/C=C/C(=O)O)cc2)cn1 [Example 14, (E)-3-(4-((1R,3R)-2-(4-Cyclopropylphenyl)-6-(1-ethyl-1H-pyrazol-4-yl)-3-methyl-1,2,3,4-tetrahydroisoquinolin-1-yl)phenyl)acrylic acid] | 530 | 1.26 | 14800 | 3.39 | 4.29 | 6.73 | 2480 |
